The values that follow come from ChEMBL document CHEMBL5154857, “Discovery of potential novel CRBN modulators by virtual screening and bioassay” (Eur J Med Chem, 2022).

Type in all cases: functional
One test relates to HL-60. In words: Antitumor activity against human HL-60 cells assessed as inhibition of cell growth at 40 uM incubated for 48 hrs by MTS assay relative to control. Background: Tetrazolium assays rely on reduction of a dye to a coloured formazan, in cell work by metabolically active cells.
The test system of test [1] is A549. In words: Antitumor activity against human A549 cells assessed as inhibition of cell growth at 40 uM incubated for 48 hrs by MTS assay relative to control.
For a further test, the system named is SMMC-7721. The test is described as follows: Antitumor activity against human SMMC-7721 cells assessed as inhibition of cell growth at 40 uM incubated for 48 hrs by MTS assay relative to control.
Another test has as its system SW480. In words: Antitumor activity against human SW480 cells assessed as inhibition of cell growth at 40 uM incubated for 48 hrs by MTS assay relative to control.
The test system of the next test is MCF7. The test is described as follows: Antitumor activity against human MCF7 cells assessed as inhibition of cell growth at 40 uM incubated for 48 hrs by MTS assay relative to control.
Test [2] has as its system A549. In words: Induction of apoptosis in human A549 cells assessed as early apoptotic cells at 1 uM measured after 24 hrs by Annexin V-PE/7-AAD dual staining based flow cytometry (reference value: 4.04 %). For orientation: In flow cytometry, cells or beads pass a laser one at a time.
The test system of test [3] is A549. In words: Induction of apoptosis in human A549 cells assessed as late apoptotic cells at 1 uM measured after 24 hrs by Annexin V-PE/7-AAD dual staining based flow cytometry (reference value: […]).
The subject of test [4] is A549. In words: Induction of apoptosis in human A549 cells assessed as necrotic cells at 1 uM measured after 24 hrs by Annexin V-PE/7-AAD dual staining based flow cytometry (reference value: 0.150 %).
Test [5] concerns A549. The test is described as follows: Induction of apoptosis in human A549 cells assessed as live cells at 1 uM measured after 24 hrs by Annexin V-PE/7-AAD dual staining based flow cytometry (reference value: 93.3 %).

In general, inhibition refers to the relative decrease from the control value, in per cent.

As to `N#CCCCN1C(=O)C(O)(CC(=O)c2ccc3c(c2)OCCO3)c2ccccc21` (centres undefined), the inhibition at 40 µM with HL-60 is -21.4%; with A549 [1], 7.13%; in the test on SMMC-7721 it was 11.5%; in the test on SW480 it was 13.5%; in the test on MCF7, -0.19%.
With `COc1cc(C(C)=O)ccc1OC(=O)C(C)N1C(=O)c2ccccc2C1=O` (centres undefined), the inhibition at 40 µM in the test on HL-60 worked out at 8.86%; in the test on A549 [1] it was 6.5%; in the test with SMMC-7721, 6.87%; in the test with SW480 it was 4.18%; in the test with MCF7, 15.3%.
Take `CC1=CC(C2CC(=O)N(c3ccccc3C)C2=O)CC2C(=O)N(c3ccccc3C)C(=O)C12` (centres undefined): the inhibition at 40 µM turned out to be 10.7% in the test on HL-60; 4.1% in the test on A549 [1]; 9.68% with SMMC-7721; 6.73% in the test on SW480; 12.3% in the test with MCF7.
With `CCOC(=O)C1(Cc2ccccc2)C(=O)N(CCCN(C)C)c2ccccc21` (centres undefined), the inhibition at 40 µM in the test with HL-60 turned out to be 5.85%; in the test on A549 [1], 7.46%; with SMMC-7721 it was 12.8%; with SW480 it was 3.98%; in the test with MCF7, 28.9%.
The like results for `Cc1cccc(NC(=O)CN2C(=O)C(=O)c3ccccc32)c1` were, in that order, 25.1%, 7.75%, 40.2%, 31.8% and 45.2%.
Turning to `O=C(NCC1(N2CCOCC2)CCCCC1)c1ccc2c(c1)C(=O)N(c1ccc(F)cc1)C2=O`, the inhibition at 40 µM was 11.5% in the test with HL-60; 9.68% in the test with A549 [1]; 16.4% with SMMC-7721; 8.82% with SW480; 13.6% in the test on MCF7.
As to `O=C(CC1(O)C(=O)N(CN2CCOCC2)c2ccccc21)c1ccc(Cl)cc1` (centres undefined), the inhibition at 40 µM in the test on HL-60 is 15.6%; with A549 [1], 1.72%; in the test on SMMC-7721, 15.2%; in the test with SW480 it was 15.3%; with MCF7, 8.23%.
Turning to `NC(=O)CN1C(=O)C(O)(CC(=O)c2ccc3c(c2)OCO3)c2ccccc21` (centres undefined), the inhibition at 40 µM with HL-60 stood at 21.6%; with A549 [1], 11.2%; with SMMC-7721 it was 11.6%; with SW480 it was 14.8%; in the test with MCF7 it was 6.11%.
Consider `COc1cccc2c1C(=O)c1c(O)c3c(c(O)c1C2=O)C[C@@](O)(C(=O)CO)C[C@@H]3O[C@H]1C[C@H](N)[C@H](O)[C@H](C)O1` [DOXORUBICIN], for which the Activity is listed as 30.8% in the test with A549 [2], 18.4% in the test with A549 [3], 0.965% with A549 [4] and 49.8% in the test with A549 [5].
